Experimental data as given in ChEMBL document CHEMBL1141944, “A synthesis of 3-deoxydihydrolycoricidine: refinement of a structurally minimum pancratistatin pharmacophore” (Bioorg Med Chem Lett, 2005).
Active and inactive are the calls of the source. No cut-off for these calls is given here.

Columns and labels:
Format in all cases: functional, cell-based
[1] = tested on: MCF7; assay: Induction of apoptosis in human breast carcinoma MCF7 cell line
[2] = tested on: Jurkat; assay: Induction of apoptosis in human Jurkat […] cell line
[3] = tested on: MCF7; assay: Antitumor activity in human breast carcinoma MCF7 cell line at 1 to 10 uM
[4] = tested on: Jurkat; assay: Antitumor activity in human Jurkat […] cell line at 1 to 10 uM

Structure (SMILES) | Activity [1] | Activity [2] | Activity [3] | Activity [4]
O=C1N[C@H]2[C@H](O)[C@H](O)[C@@H](O)[C@H](O)[C@@H]2c2cc3c(c(O)c21)OCO3 | Active | Active | – | –
O=C1N[C@H]2[C@H](O)C[C@@H](O)C[C@@H]2c2cc3c(cc21)OCO3 | inactive | inactive | inactive | inactive
